From article PMC11247627, “Evaluation of Antibacterial Functionalized Dihydropyrimidine Photoaffinity Probes Toward Mechanism of Action Studies” (ACS Medicinal Chemistry Letters, 2024)
In brackets after ≈: the same amount, converted by molar mass. Several values for one entry are separate records, joined by “and”; a condition that tells them apart may be missing. Equal values may be shown once. Entries after “also recorded” stand apart in the source; their conditions may differ.

Legend:
[1] = system: Staphylococcus aureus ATCC 12600; test: Antibacterial broth microdilution assay (MIC), methicillin-sensitive S. aureus ATCC 12600; type: cell-based; conditions: Staphylococcus aureus, ATCC12600; amount inhibiting >95% of growth (A600), 18 h; suffix 'I' = partial growth inhibition at the value, >95% at higher concentrations; read-out: MIC ATCC 12600
Method: (§1) These 24 DHP analogues were then screened for inhibition of Staphylococcus aureus growth using microdilution assays. Growth inhibition was examined in methicillin-sensitive S. aureus (ATCC 12600) and two strains of MRSA (ATCC 33591 and ATCC 43300). Antibiotic controls were included in the screen, including carbenicillin, erythromycin, gentamycin, trimethoprim, and vancomycin, and minimum inhibitory concentrations (MICs) were determined for each compound, which were defined as the concentration required to inhibit >95% of bacterial growth (Table 1).
(§2) Antibacterial Microdilution Assay (MIC Determination)
(§3) 1240 The MIC determination assays were performed in a BSL-2 laboratory with appropriate security and biosafety measures. The MICs were determined using a broth microdilution assay closely following the guidelines of the Clinical and Laboratories Standards Institute (CLSI). MICs were determined in duplicate for two biological replicates using 2-fold serial dilutions of test compounds or commercial antibiotics in cation-adjusted Mueller-Hinton broth. The central 60 wells of 96-well plates were 1245 prepared with the compound of interest at the indicated concentration, where 2 µL of the compound in DMSO were added prior to the addition of the culture. Overnight cultures of the different Staphylococcus aureus strains were diluted to provide an initial inoculum of approximately 5 X 10 5 CFU/mL that was delivered to each well in 198 µL of culture (final DMSO concentration of ~1%). Initial inoculum concentrations were verified by plating to count CFU/mL. Each plate was equipped with 1250 experimental controls for full growth (6 wells) and full growth inhibition (6 wells), and all control wells were in the presence of 1% DMSO. The outer 36 wells were filled with 200 µL of culture each to prevent growth effects on the interior 60 wells. The plates were incubated at 37 °C for 18 hours, at which time they were removed from the incubator and were allowed to equilibrate to room temperature for 30 minutes. Absorbance of each well at 600 nm was then read using a microplate reader to 1255 determine the MIC, and visual confirmation of growth inhibition was also performed. If variation was seen in the experimental values, the highest value of two independent trials was listed.

[2] = system: red blood cells (defibrinated sheep blood); test: Hemolysis assay (red blood cell lysis); type: cell-based; conditions: concentration producing >20% hemolysis of red blood cells, 1 h, 37 C
Method: (§4) 1260 1.5 mL of mechanically defibrinated sheep blood (Hemostat Labs: DSB100) was placed in a microcentrifuge tube and was centrifuged at 10,000 rpm for ten minutes. Following the removal of the supernatant, the cells were resuspended in 1 mL of phosphate-buffered saline (PBS). This process was repeated two more times. The final suspension was diluted ten-fold with PBS and was aliquoted into microcentrifuge tubes containing the compounds which were previously serial diluted in PBS. TritonX 1265 (1% by volume) served as a positive control, while sterile PBS served as a negative control. All samples were incubated at 37 °C and shaken at 200 rpm for 1 hour. After the 1 hour, the samples were centrifuged at 10,000 rpm for 5 minutes and the absorbance of the supernatant was measured via UV spectroscopy at a 540 nm wavelength.

[3] = MTT cytotoxicity assay, HEK293 viability; type: cell-based; conditions: human, HEK293 cells, 24 h treatment
Method: After determining that some of our compounds were quite potent for the inhibition of bacterial growth, we next turned toward assessing broader cytotoxicity trends. […] Further, our previously reported derivatives were also screened for red blood cell (RBC) hemolysis, and the assay indicated a lack of RBC lysis at the highest concentrations tested for all compounds (64 μg/mL).[6] […] This indicates it may have secondary mechanisms of cytotoxicity via nonspecific membrane rupturing activity, albeit, at a much higher concentration than its 2 μg/mL MIC. Next, we examined the compounds’ ability to decrease the viability of an immortalized mammalian cell line (HEK293) using a colorimetric MTT assay.[34] To our surprise, all of the compounds screened produced relatively potent cytotoxicity against this cell line. […] We screened a dihydropyrimidine where the guanidine was substituted with a urea (traditional Biginelli reaction derived), and this compound had no bacterial inhibition but continued to have significant mammalian cytotoxicity, further decoupling the antibacterial activity from mammalian cytotoxicity in these cases. Future studies involving the photoaffinity probes will examine the mechanism by which our compounds exert their growth-inhibiting effects in both bacterial and mammalian cells.
Mammalian cytotoxicity was evaluated using a commercially available MTT Cell proliferation assay 1275 (ATCC 30-1010K; Manassas, VA) following the included protocol. Briefly, Human Embryonic Kidney 293 (HEK-293; ATCC CRL-1353) cells were seeded onto 96 well plates (Nunclon Delta; ThermoFisher 167008; Waltham, MA) coated with Poly-D-Lysine (Thermofisher A3890401) at a density of […] cells per well in 80 µL of Eagle's Minimum Essential Medium (EMEM; ATCC 30-2003) with 10% Fetal Bovine Serum (ATCC 30-2021). Cells were incubated at 37 °C in a 5% CO2 atmosphere and allowed to 1280 adhere overnight, and then treated for 24 h with 20 µL of drugs dissolved in PBS with 0.5% DMSO, at concentrations ranging from 1×10^-4 M to 1×10^-9 M. Following treatment, 10 µL of MTT reagent was added to each well and allowed to incubate at 37 °C for 4 h. Then, 100 μL of detergent reagent was added to all wells, and they were stored at room temperature in the dark for 2 h. Absorbance was then read using a multi-mode spectrophotometer (Spectramax i3X; San Jose, CA) at a wavelength of 570 1285 nm. Raw values were normalized to a 0-100% scale using the maximum and minimum responses. To generate dose-response curves and IC50 values, normalized data were plotted against the log of the drug concentrations and fit to nonlinear curve [log(inhibitor) vs. response – variable slope (four parameters)] using GraphPad Prism version 7.05 (GraphPad Software; San Diego, CA).

[4] = system: Staphylococcus aureus ATCC 33591 (MRSA); test: Antibacterial broth microdilution assay (MIC), MRSA ATCC 33591; type: cell-based; conditions: Staphylococcus aureus; amount inhibiting >95% of growth (A600), 18 h; suffix 'I' = partial growth inhibition at the value, >95% at higher concentrations; read-out: MIC ATCC 33591
Method: as §1, §2, §3

[5] = system: Staphylococcus aureus ATCC 43300 (MRSA); test: Antibacterial broth microdilution assay (MIC), MRSA ATCC 43300; type: cell-based; conditions: amount inhibiting >95% of growth (A600), 18 h, suffix 'I' = partial growth inhibition at the value, >95% at higher concentrations; for MIC: Staphylococcus aureus, read-out: MIC ATCC 43300
Method: as §1, §2, §3

Staphylococcus aureus = test: S. aureus growth inhibition (all three strains or strain not specified); type: cell-based; conditions: for MIC: Staphylococcus aureus, all three S. aureus strains or strain not specified, read-out: concentration inhibiting S. aureus growth (MIC); for antibacterial activity (in words): S. aureus growth
Method: as §1, §2, §3

[6] = Hemolysis assay (red blood cell lysis); type: cell-based, sheep; conditions: sheep, washed red blood cells from defibrinated sheep blood; 64 μg/mL; read-out: hemolysis (RBC lysis) at 64 μg/mL
Method: as §4

[7] = biological target: T1, recombinant Staphylococcus aureus DHFR (SaDHFR) (Staphylococcus aureus, UniProt P0A017); test: Inhibition of recombinant S. aureus DHFR; type: biochemical; conditions: in vitro
T1 construct: made in house
T1 sequence (P0A017 whole entry): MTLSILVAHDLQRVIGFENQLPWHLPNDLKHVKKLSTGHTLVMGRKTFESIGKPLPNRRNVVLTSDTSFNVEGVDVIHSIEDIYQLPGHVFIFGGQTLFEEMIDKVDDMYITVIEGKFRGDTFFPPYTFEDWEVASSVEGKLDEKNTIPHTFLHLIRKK
Method: To explore this, oxidization of DHP 7a to the pyrimidine 8a was performed using phenyliodine diacetate (PIDA) (Figure 3a),[12]−[14] as this oxidation state mimics FDA approved antimicrobial DHFR inhibitors trimethoprim 1 (Figure 1a) and pyrimethamine 9 (Figure 3b).

MRSA = system: MRSA; set-up: method as in PMID 18931753, PMID 16883415; conditions: cited from earlier work
mammalian toxicity = system: mammalian toxicity; set-up: method as in PMID 18931753; conditions: cited from earlier work
[8] = system: dihydrofolate reductase (DHFR); set-up: method as in PMID 18931753; conditions: cited from earlier work

Row | Structure (SMILES) | MIC [1] [µg/mL] | lysis20 [2] [µg/mL] | IC50 at 24 h [3] | MIC [4] [µg/mL] | MIC [5] [µg/mL] | MIC (Staphylococcus aureus) [µg/mL] | MIC ATCC 43300 [5] [µg/mL] | hemolysis at 1 h, 64 μg/mL [6] [%] | antibacterial activity (in words) (Staphylococcus aureus) | DHFR inhibition (in words) [7] | MRSA growth inhibition (in words) (MRSA) | mammalian toxicity (in words) (mammalian toxicity) | DHFR inhibition (in words) [8]
1 | CCOC(=O)C1=C(c2ccccc2)NC(N)=NC1c1cccc(Cl)c1 (stereo not shown) [6i] | 32 (≈ 89.9 µM) | >64 | 18 µM and 5.8 µg/mL | 32 (≈ 89.9 µM) | 32 (≈ 89.9 µM) |  |  |  |  |  |  |  | 
2 | CCOC(=O)C1=C(c2ccccc2)NC(N)=NC1c1ccc(C(C)C)cc1 (stereo not shown) [6r] |  | >64 | 9.5 µM and 3.1 µg/mL |  | 8 (≈ 22 µM) | 8 (≈ 22 µM) |  |  |  |  |  |  | 
3 | CCOC(=O)C1=C(c2ccccc2)NC(N)=NC1c1ccccc1OC (stereo not shown) [6s] | > 64 | >64 | 87 µM and 28 µg/mL | > 64 | > 64 |  | >64 |  |  |  |  |  | 
4 | CCOC(=O)C1=C(c2ccccc2)NC(N)=NC1c1ccc(OC)cc1 (stereo not shown) [6u] |  | >64 | 14 µM and 4.5 µg/mL | > 64 | > 64 | > 64 |  |  |  |  |  |  | 
5 | CCOC(=O)C1=C(c2ccccc2)NC(N)=NC1c1ccc(CC(C)C)cc1 (stereo not shown) [7a] | 4 (≈ 10.6 µM) | >64 | 7.9 µM and 2.5 µg/mL |  | 4 (≈ 10.6 µM) | 4 (≈ 10.6 µM) |  |  |  |  |  |  | 
6 | CCOC(=O)C1=C(c2ccccc2)NC(N)=NC1c1ccc(-c2ccccc2)cc1 (stereo not shown) [7b] | 4 (≈ 10.1 µM) | >64 | 9.4 µM and 3 µg/mL | 4 (≈ 10.1 µM) | 4 (≈ 10.1 µM) | 4 (≈ 10.1 µM) |  |  |  |  |  |  | 
7 | CCOC(=O)C1=C(c2cccc(C(F)(F)F)c2)NC(N)=NC1c1cc(Cl)cc(Cl)c1 (stereo not shown) [7e] | 4 (≈ 8.73 µM) | >64 | 9.9 µM and 3.2 µg/mL | 4 (≈ 8.73 µM) | 4 (≈ 8.73 µM) |  |  |  |  |  |  |  | 
8 | CCOC(=O)C1=C(c2cccc(C(F)(F)F)c2)NC(N)=NC1c1ccc(CC(C)C)cc1 (stereo not shown) [7f] | 2 (≈ 4.49 µM) | 64 | 1.9 µM and 0.61 µg/mL | 2 (≈ 4.49 µM) | 2 (≈ 4.49 µM) | 2 (≈ 4.49 µM) |  | > 20 |  |  |  |  | 
9 | CCOC(=O)C1=C(c2cccc(F)c2)NC(N)=NC1c1cc(Cl)cc(Cl)c1 (stereo not shown) [7g] | 8 (≈ 19.6 µM) | >64 | 14 µM and 4.5 µg/mL | 8 (≈ 19.6 µM) | 8 (≈ 19.6 µM) |  |  |  |  |  |  |  | 
10 | CCOC(=O)C1=C(c2cccc(F)c2)NC(N)=NC1c1ccc(CC(C)C)cc1 (stereo not shown) [7h] | 4 (≈ 10.1 µM) | >64 | 4.4 µM and 1.4 µg/mL | 4 (≈ 10.1 µM) | 4 (≈ 10.1 µM) |  |  |  |  |  |  |  | 
11 | CCOC(=O)C1=C(c2cccc(C)c2)NC(N)=NC1c1cc(Cl)cc(Cl)c1 (stereo not shown) [7i] | 8 (≈ 19.8 µM) | >64 | 16 µM and 5.1 µg/mL | 8 (≈ 19.8 µM) | 8 (≈ 19.8 µM) |  |  |  |  |  |  |  | 
12 | CCOC(=O)c1c(-c2ccccc2)nc(N)nc1-c1ccc(CC(C)C)cc1 [8a] |  |  |  |  |  | > 64 |  |  | lacked antibacterial activity | no inhibition was observed; also recorded: lacked antibacterial activity and DHFR inhibition |  |  | 
13 | CCOC(=O)C1=C(CC)NC(N)=NC1c1cc(Cl)cc(Cl)c1O (stereo not shown) [compound 2, Emmacin] |  |  |  |  |  |  |  |  |  |  | found to inhibit MRSA growth | lack mammalian toxicity | previously reported to inhibit DHFR
14 | CCOC(=O)C1=C(c2ccccc2)NC(N)=NC1c1ccccc1 (stereo not shown) [compound 6] | > 64 | >64 | 18 µM and 5.8 µg/mL | > 64 | > 64 | > 64 | >64 |  |  |  |  |  | 
15 | CCOC(=O)c1c(C)nc(N)nc1-c1cc(Cl)cc(Cl)c1 [compound 10] |  |  |  |  |  |  |  |  | lost all antibacterial activity; also recorded: lacked antibacterial activity | lacked antibacterial activity and DHFR inhibition |  |  | 
